Measurements as given in the NIST ThermoML archive (doi:10.1016/j.jct.2015.08.033).

Experiment: mn = molality of the nth substance listed, in mol/kg
Details: 100 kPa, Liquid; for speed of sound: Frequency=3 MHz, Sing-around technique in a fixed-path interferometer; for mass density: Vibrating tube method

O=S(=O)([O-])C(F)(F)F.O=S(=O)([O-])C(F)(F)F.[Ca+2] [calcium trifluoromethanesulfonate] + CN(C)C=O
Details	mass density, 298.15 K [kg/m3]	mass density, 303.15 K [kg/m3]	mass density, 308.15 K [kg/m3]	mass density, 313.15 K [kg/m3]	mass density, 318.15 K [kg/m3]	speed of sound, 298.15 K [m/s]	speed of sound, 303.15 K [m/s]	speed of sound, 308.15 K [m/s]	speed of sound, 313.15 K [m/s]	speed of sound, 318.15 K [m/s]
m1 = 0.01106	946.239	941.472	936.692	931.892	927.09	1457.3	1438.1	1418.8	1399.6	1380.3
m1 = 0.01878	947.845	943.075	938.305	933.505	928.705	1457.4	1438.2	1418.9	1399.7	1380.6
m1 = 0.02772	949.696	944.925	940.169	935.363	930.568	1457.4	1438.3	1419	1399.9	1380.8
m1 = 0.03952	952.113	947.355	942.581	937.793	932.985	1457.4	1438.3	1419.2	1400.1	1381.1
m1 = 0.05628	955.509	950.747	945.976	941.193	936.398	1457.5	1438.3	1419.2	1400.2	1381.2
m1 = 0.06961	958.2	953.444	948.677	943.893	939.103	1457.3	1438.3	1419.3	1400.3	1381.4
m1 = 0.08918	962.098	957.344	952.579	947.802	943.015	1457.1	1438.2	1419.2	1400.3	1381.5
m1 = 0.1114	966.493	961.744	956.98	952.205	947.419	1456.8	1438	1419.1	1400.3	1381.6
m1 = 0.1344	971.012	966.262	961.501	956.728	951.947	1456.6	1437.8	1419	1400.3	1381.6
m1 = 0.1671	977.356	972.601	967.839	963.068	958.29	1456.4	1437.6	1418.8	1400.2	1381.6

O=S(=O)([O-])C(F)(F)F.O=S(=O)([O-])C(F)(F)F.[Mg+2] [magnesium triflate] + CC(=O)N(C)C
Details	mass density, 298.15 K [kg/m3]	mass density, 303.15 K [kg/m3]	mass density, 308.15 K [kg/m3]	mass density, 313.15 K [kg/m3]	mass density, 318.15 K [kg/m3]	speed of sound, 298.15 K [m/s]	speed of sound, 303.15 K [m/s]	speed of sound, 308.15 K [m/s]	speed of sound, 313.15 K [m/s]	speed of sound, 318.15 K [m/s]
m1 = 0.009142	938.272	933.667	929.056	924.433	919.8	1456.4	1436.7	1416.9	1397.2	1377.7
m1 = 0.01469	939.459	934.86	930.249	925.632	921.007	1456.7	1436.9	1417.2	1397.6	1378.1
m1 = 0.02251	941.134	936.55	931.947	927.333	922.714	1457	1437.3	1417.7	1398.1	1378.6
m1 = 0.03194	943.119	938.53	933.932	929.324	924.71	1457.4	1437.8	1418.2	1398.6	1379.2
m1 = 0.04489	945.817	941.246	936.655	932.054	927.445	1457.9	1438.3	1418.8	1399.3	1379.9
m1 = 0.05714	948.308	943.72	939.134	934.538	929.945	1458.3	1438.8	1419.3	1399.9	1380.6
m1 = 0.07138	951.266	946.705	942.126	937.537	932.941	1458.9	1439.4	1419.9	1400.6	1381.3
m1 = 0.08889	954.777	950.211	945.637	941.054	936.462	1459.5	1440.1	1420.7	1401	1382.1
m1 = 0.1071	958.463	953.905	949.338	944.772	940.1	1460	1440.7	1421.3	1401.9	1382.8
m1 = 0.1341	963.77	959.1	954.5	950	945.4	1460.7	1441.5	1422.3	1403.2	1384.2

O=S(=O)([O-])C(F)(F)F.O=S(=O)([O-])C(F)(F)F.[Mg+2] [magnesium triflate] + CN(C)C=O
Details	mass density, 298.15 K [kg/m3]	mass density, 303.15 K [kg/m3]	mass density, 308.15 K [kg/m3]	mass density, 313.15 K [kg/m3]	mass density, 318.15 K [kg/m3]	speed of sound, 298.15 K [m/s]	speed of sound, 303.15 K [m/s]	speed of sound, 308.15 K [m/s]	speed of sound, 313.15 K [m/s]	speed of sound, 318.15 K [m/s]
m1 = 0.01036	946.019	941.245	936.47	931.673	926.87	–	–	–	–	–
m1 = 0.01706	947.369	942.601	937.828	933.038	928.233	1457.4	1438.2	1418.9	1399.7	1380.5
m1 = 0.0217	948.297	943.537	938.762	933.973	929.172	1457.3	1438.2	1418.9	1399.8	1380.7
m1 = 0.03662	951.268	946.512	941.741	936.956	932.159	1457.3	1438.2	1419.1	1400	1380.9
m1 = 0.0512	954.144	949.392	944.627	939.848	935.055	1457.3	1438.2	1419.1	1400.1	1381.1
m1 = 0.06466	956.788	952.038	947.275	942.499	937.711	1457.2	1438.2	1419.1	1400.2	1381.2
m1 = 0.082	960.152	955.393	950.635	945.853	941.072	1457.1	1438.1	1419.1	1400.2	1381.3
m1 = 0.102	964.032	959.291	954.537	949.768	944.991	1456.9	1438	1419.1	1400.2	1381.5
m1 = 0.1234	968.107	963.366	958.615	953.853	949.079	1456.7	1437.9	1419	1400.3	1381.5
m1 = 0.1544	974.074	969.343	964.6	959.846	955.083	1456.4	1437.6	1418.9	1400.2	1381.6

O=S(=O)([O-])C(F)(F)F.O=S(=O)([O-])C(F)(F)F.[Sr+2] [strontium trifluoromethanesulfonate] + CC(=O)N(C)C
Details	mass density, 298.15 K [kg/m3]	mass density, 303.15 K [kg/m3]	mass density, 308.15 K [kg/m3]	mass density, 313.15 K [kg/m3]	mass density, 318.15 K [kg/m3]	speed of sound, 298.15 K [m/s]	speed of sound, 303.15 K [m/s]	speed of sound, 308.15 K [m/s]	speed of sound, 313.15 K [m/s]	speed of sound, 318.15 K [m/s]
m1 = 0.009611	938.686	934.078	929.46	924.833	920.199	1456.3	1436.5	1416.7	1397	1377.5
m1 = 0.01616	940.308	935.702	931.087	926.462	921.831	1456.5	1436.8	1417	1397.3	1377.8
m1 = 0.02452	942.361	937.757	933.142	928.518	923.888	1456.8	1437.1	1417.4	1397.8	1378.3
m1 = 0.0346	944.817	940.215	935.603	930.982	926.353	1456.9	1437.2	1417.5	1398	1378.6
m1 = 0.04877	948.237	943.637	939.026	934.407	929.78	1457.1	1437.5	1418	1398.6	1379.2
m1 = 0.06177	951.363	946.763	942.151	937.533	932.906	1457.3	1437.8	1418.3	1398.9	1379.7
m1 = 0.07813	955.261	950.663	946.052	941.432	936.806	1457.5	1438.1	1418.7	1399.3	1380.1
m1 = 0.09814	960.007	955.407	950.795	946.177	941.551	1457.7	1438.4	1419.1	1399.8	1380.7
m1 = 0.1176	964.581	959.98	955.367	950.748	946.121	1458	1438.8	1419.5	1400.3	1381.3
m1 = 0.1476	971.566	966.955	962.34	957.717	953.091	1458.3	1439	1419.8	1400.8	1381.8
